Laboratory results from patent US8975398B2, “NAMPT inhibitors” (AbbVie Inc., priority 2012, dated 2015).

Test system: PC3 cells
Experiment: NAMPT Cell Proliferation Assay (Cell Titer Glo; also performed in the presence of 0.3 mM nicotinamide mononucleotide)
Type: cell-based
Details: Homo sapiens, PC-3, 120 h, 5 days incubation, cell viability by Cell Titer Glo
How it was run: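 Proliferation of PC3 cells treated 5 days with a 10-fold compound series (top 10 μM) was quantified by Cell Titer Glo luminescence; IC50s were fitted from percent inhibition.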

| SMILES | IC50 |
| --- | --- |
| Cc1ccc(N2CC(C(=O)Nc3ccc(O[C@@H]4CCN(C(=O)c5cscn5)C4)cc3)C2)nn1 [Example 918, 1-(6-methylpyridazin-3-yl)-N-(4-{[(3R)-1-(1,3-thiazol-4-ylcarbonyl)pyrrolidin-3-yl]oxy}phenyl)azetidine-3-carboxamide] | 717 nM |
| CC1CC1NC(=O)c1ccc(NC(=O)C2CN(c3cccnn3)C2)cc1 (centres unmarked) [Example 991, N-{4-[(2-methylcyclopropyl)carbamoyl]phenyl}-1-(pyridazin-3-yl)azetidine-3-carboxamide] | 760 nM |
| CC1(Cn2cc(-c3ccc(NC(=O)C4CN(c5cccnc5)C4)cc3)cn2)CCNCC1 [Example 877, N-(4-{1-[(4-methylpiperidin-4-yl)methyl]-1H-pyrazol-4-yl}phenyl)-1-(pyridin-3-yl)azetidine-3-carboxamide] | 29.6 nM |
| Cc1nnccc1N1CC(C(=O)Nc2ccc(C3CCN(C(=O)c4ccccc4F)CC3)cc2)C1 [Example 909, N-{4-[1-(2-fluorobenzoyl)piperidin-4-yl]phenyl}-1-(3-methylpyridazin-4-yl)azetidine-3-carboxamide] | 67 nM |
| O=C(N[C@H]1CCN(c2cccnn2)C1)c1ccc(C2CCN(C(=O)CC(F)(F)F)CC2)s1 [Example 1017, N-[(3S)-1-(pyridazin-3-yl)pyrrolidin-3-yl]-5-[1-(3,3,3-trifluoropropanoyl)piperidin-4-yl]thiophene-2-carboxamide] | 752 nM |
| Cc1ccc(N2CC[C@H](C(=O)Nc3ccc(C4CCN(C(=O)c5ccccc5F)CC4)cc3)C2)nn1 [Example 892, (3S)—N-{4-[1-(2-fluorobenzoyl)piperidin-4-yl]phenyl}-1-(6-methylpyridazin-3-yl)pyrrolidine-3-carboxamide] | 146 nM |
| CC(C)(C)CC(=O)N1CCC(n2cc(NC(=O)C3CN(c4cccnn4)C3)cn2)CC1 [Example 970, N-{1-[1-(3,3-dimethylbutanoyl)piperidin-4-yl]-1H-pyrazol-4-yl}-1-(pyridazin-3-yl)azetidine-3-carboxamide] | 28.5 nM |
| Cc1ccnnc1N1CC[C@H](C(=O)Nc2ccc(C3CCN(C(=O)c4ccccc4)CC3)cc2)C1 [Example 921, (3S)—N-[4-(1-benzoylpiperidin-4-yl)phenyl]-1-(4-methylpyridazin-3-yl)pyrrolidine-3-carboxamide] | 2.9 nM |
| CC[C@H](C)NC(=O)c1ccc(NC(=O)C2CN(c3cccnn3)C2)cc1 [Example 978, N-{4-[(2S)-butan-2-ylcarbamoyl]phenyl}-1-(pyridazin-3-yl)azetidine-3-carboxamide] | 1070 nM |
| O=C(NC[C@@H]1CCCO1)c1ccc(NC(=O)C2CN(c3cccnn3)C2)cc1 [Example 1000, 1-(pyridazin-3-yl)-N-(4-{[(2S)-tetrahydrofuran-2-ylmethyl]carbamoyl}phenyl)azetidine-3-carboxamide] | 77 nM |
| CC(C)(C)C(=O)N1CCC(c2ccc(NC(=O)C3CN(c4cccnn4)C3)cc2F)CC1 [Example 886, N-{4-[1-(2,2-dimethylpropanoyl)piperidin-4-yl]-3-fluorophenyl}-1-(pyridazin-3-yl)azetidine-3-carboxamide] | 7.66 nM |
| CC(C)CC(=O)N1CCC(c2ccc(NC(=O)C3CN(c4cccnn4)C3)cc2F)CC1 [Example 887, N-{3-fluoro-4-[1-(3-methylbutanoyl)piperidin-4-yl]phenyl}-1-(pyridazin-3-yl)azetidine-3-carboxamide] | 8.47 nM |
| O=C(Nc1ccc(C2CCN(C(=O)c3cccc(F)c3)CC2)c(F)c1)C1CN(c2cccnn2)C1 [Example 879, N-{3-fluoro-4-[1-(3-fluorobenzoyl)piperidin-4-yl]phenyl}-1-(pyridazin-3-yl)azetidine-3-carboxamide] | 5.83 nM |
| O=C(Nc1ccc(CC2CCN(C(=O)c3cncs3)CC2)cc1)C1CN(c2cccnn2)C1 [Example 927, 1-(pyridazin-3-yl)-N-(4-{[1-(1,3-thiazol-5-ylcarbonyl)piperidin-4-yl]methyl}phenyl)azetidine-3-carboxamide] | 3.9 nM |
| O=C(Nc1ccc(CC2CCN(C(=O)c3cscn3)CC2)cc1)C1CN(c2cccnn2)C1 [Example 937, 1-(pyridazin-3-yl)-N-(4-{[1-(1,3-thiazol-4-ylcarbonyl)piperidin-4-yl]methyl}phenyl)azetidine-3-carboxamide] | 2.62 nM |
| CC(C)CC(=O)N1CCC(Cc2ccc(NC(=O)C3CN(c4cccnn4)C3)cc2)CC1 [Example 966, N-(4-{[1-(3-methylbutanoyl)piperidin-4-yl]methyl}phenyl)-1-(pyridazin-3-yl)azetidine-3-carboxamide] | 3.23 nM |
| O=C(Nc1ccc(CC2CCN(C(=O)c3ccccc3F)CC2)cc1)C1CN(c2cccnn2)C1 [Example 896, N-(4-{[1-(2-fluorobenzoyl)piperidin-4-yl]methyl}phenyl)-1-(pyridazin-3-yl)azetidine-3-carboxamide] | 1.09 nM |
| CN(C)CCc1ccc(NC(=O)c2ccc(NC(=O)C3CN(c4cccnn4)C3)cc2)cc1 [Example 1021, N-[4-({4-[2-(dimethylamino)ethyl]phenyl}carbamoyl)phenyl]-1-(pyridazin-3-yl)azetidine-3-carboxamide] | 47.7 nM |

| SMILES | IC50 |
| --- | --- |
| O=C(NCCC1CC1)c1ccc(NC(=O)C2CN(c3cccnn3)C2)cc1 [Example 975, N-{4-[(2-cyclopropylethyl)carbamoyl]phenyl}-1-(pyridazin-3-yl)azetidine-3-carboxamide] | 98 nM |
| Cc1ccc(N2CC[C@H](C(=O)Nc3ccc(C4CCN(C(=O)C(C)(C)C)CC4)cc3)C2)nn1 [Example 894, (3S)—N-{4-[1-(2,2-dimethylpropanoyl)piperidin-4-yl]phenyl}-1-(6-methylpyridazin-3-yl)pyrrolidine-3-carboxamide] | 752 nM |
| CCC(C)(C)C(=O)N1CCC(Cc2ccc(NC(=O)C3CN(c4cccnn4)C3)cc2)CC1 [Example 930, N-(4-{[1-(2,2-dimethylbutanoyl)piperidin-4-yl]methyl}phenyl)-1-(pyridazin-3-yl)azetidine-3-carboxamide] | 2.7 nM |
| CCOC(=O)c1cc(-c2ccc(NC(=O)C3CN(c4cccnn4)C3)cc2)n(C)n1 [Example 912, ethyl 1-methyl-5-[4-({[1-(pyridazin-3-yl)azetidin-3-yl]carbonyl}amino)phenyl]-1H-pyrazole-3-carboxylate] | 64.2 nM |
| O=C(Nc1ccc(-c2cc(C(F)(F)F)nn2-c2ccccc2)cc1)C1CN(c2cccnn2)C1 [Example 923, N-{4-[1-phenyl-3-(trifluoromethyl)-1H-pyrazol-5-yl]phenyl}-1-(pyridazin-3-yl)azetidine-3-carboxamide] | 69.4 nM |
| O=C(Nc1ccc(CC2CCN(C(=O)CC(F)(F)F)CC2)cc1)C1CN(c2cccnn2)C1 [Example 968, 1-(pyridazin-3-yl)-N-(4-{[1-(3,3,3-trifluoropropanoyl)piperidin-4-yl]methyl}phenyl)azetidine-3-carboxamide] | 3.7 nM |
| CCC(C)C(=O)N1CCC(Cc2ccc(NC(=O)C3CN(c4cccnn4)C3)cc2)CC1 (centres unmarked) [Example 957, N-(4-{[1-(2-methylbutanoyl)piperidin-4-yl]methyl}phenyl)-1-(pyridazin-3-yl)azetidine-3-carboxamide] | 1.93 nM |
| CCC(C)(C)C(=O)N1CCC(c2ccc(C(=O)N[C@H]3CCN(c4cccnn4)C3)s2)CC1 [Example 1015, 5-[1-(2,2-dimethylbutanoyl)piperidin-4-yl]-N-[(3S)-1-(pyridazin-3-yl)pyrrolidin-3-yl]thiophene-2-carboxamide] | 90.1 nM |
| CC(C)(C)C(=O)N1CCC(O)(c2ccc(NC(=O)C3CN(c4cccnn4)C3)cc2)CC1 [Example 890, N-{4-[1-(2,2-dimethylpropanoyl)-4-hydroxypiperidin-4-yl]phenyl}-1-(pyridazin-3-yl)azetidine-3-carboxamide] | 4.09 nM |
| O=C(Nc1ccc(CC2CCN(C(=O)CC3C[C@@H]4CC[C@H]3C4)CC2)cc1)C1CN(c2cccnn2)C1 (stereo partly drawn) [Example 933, N-[4-({1-[(1S,4R)-bicyclo[2.2.1]hept-2-ylacetyl]piperidin-4-yl}methyl)phenyl]-1-(pyridazin-3-yl)azetidine-3-carboxamide] | 2.39 nM |
| CC(C)CCC(=O)N1CCC(Cc2ccc(NC(=O)C3CN(c4cccnn4)C3)cc2)CC1 [Example 935, N-(4-{[1-(4-methylpentanoyl)piperidin-4-yl]methyl}phenyl)-1-(pyridazin-3-yl)azetidine-3-carboxamide] | 2 nM |
| CC[C@H](C)C(=O)N1CCC(Cc2ccc(NC(=O)C3CN(c4cccnn4)C3)cc2)CC1 [Example 903, N-[4-({1-[(2S)-2-methylbutanoyl]piperidin-4-yl}methyl)phenyl]-1-(pyridazin-3-yl)azetidine-3-carboxamide] | 0.618 nM |
| O=C(NCC1CCOC1)c1ccc(NC(=O)C2CN(c3cccnn3)C2)cc1 (centres unmarked) [Example 989, 1-(pyridazin-3-yl)-N-{4-[(tetrahydrofuran-3-ylmethyl)carbamoyl]phenyl}azetidine-3-carboxamide] | 602 nM |
| O=C(Nc1ccc(CC2CCN(C(=O)CC3CC3)CC2)cc1)C1CN(c2cccnn2)C1 [Example 956, N-(4-{[1-(cyclopropylacetyl)piperidin-4-yl]methyl}phenyl)-1-(pyridazin-3-yl)azetidine-3-carboxamide] | 6.4 nM |
| Cc1ccnnc1N1CC(C(=O)Nc2ccc(C3CCN(C(=O)CC(C)(C)C)CC3)cc2)C1 [Example 969, N-{4-[1-(3,3-dimethylbutanoyl)piperidin-4-yl]phenyl}-1-(4-methylpyridazin-3-yl)azetidine-3-carboxamide] | 0.347 nM |
| O=C(Nc1ccc(C2CCN(C(=O)c3ccccc3F)CC2)c(F)c1)C1CN(c2cccnn2)C1 [Example 885, N-{3-fluoro-4-[1-(2-fluorobenzoyl)piperidin-4-yl]phenyl}-1-(pyridazin-3-yl)azetidine-3-carboxamide] | 1.63 nM |
| CC(C)(C)C(=O)N1CCC(c2ccc(C(=O)N[C@H]3CCN(c4cccnn4)C3)s2)CC1 [Example 1013, 5-[1-(2,2-dimethylpropanoyl)piperidin-4-yl]-N-[(3S)-1-(pyridazin-3-yl)pyrrolidin-3-yl]thiophene-2-carboxamide] | 213 nM |
